Measured values published in PubChem BioAssay (NCI).
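Results reflect a 48-hour exposure of cells in 96-well plates to compound at five concentrations. The concentration for full growth arrest is given as TGI.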

How the values were obtained:
Assay in all cases: DTP human tumour cell line panel, 48 h
HL-60(TB) leukemia = tested on: HL-60(TB) leukemia
MALME-3M melanoma = tested on: MALME-3M melanoma
NCI/ADR-RES ovarian = tested on: NCI/ADR-RES ovarian
NCI-H460 lung = tested on: NCI-H460 lung
UACC-62 melanoma = tested on: UACC-62 melanoma
OVCAR-3 ovarian = tested on: OVCAR-3 ovarian
CAKI-1 renal = tested on: CAKI-1 renal
786-0 renal = tested on: 786-0 renal
HCC-2998 colon = tested on: HCC-2998 colon
RPMI-8226 leukemia = tested on: RPMI-8226 leukemia
SK-MEL-5 melanoma = tested on: SK-MEL-5 melanoma
BT-549 breast = tested on: BT-549 breast
NCI-H522 lung = tested on: NCI-H522 lung
DU-145 prostate = tested on: DU-145 prostate
PC-3 prostate = tested on: PC-3 prostate
SN12C renal = tested on: SN12C renal
OVCAR-5 ovarian = tested on: OVCAR-5 ovarian
HS 578T breast = tested on: HS 578T breast
OVCAR-4 ovarian = tested on: OVCAR-4 ovarian
SK-MEL-28 melanoma = tested on: SK-MEL-28 melanoma
KM12 colon = tested on: KM12 colon
SNB-75 CNS = tested on: SNB-75 CNS
TK-10 renal = tested on: TK-10 renal
T-47D breast = tested on: T-47D breast
U251 CNS = tested on: U251 CNS
OVCAR-8 ovarian = tested on: OVCAR-8 ovarian
COLO 205 colon = tested on: COLO 205 colon
MDA-MB-435 = tested on: MDA-MB-435
RXF 393 renal = tested on: RXF 393 renal
IGROV1 ovarian = tested on: IGROV1 ovarian
LOX IMVI melanoma = tested on: LOX IMVI melanoma
A498 renal = tested on: A498 renal
NCI-H23 lung = tested on: NCI-H23 lung
MDA-N = tested on: MDA-N
EKVX NSCLC = tested on: EKVX NSCLC
SNB-19 CNS = tested on: SNB-19 CNS
HCT-116 colon = tested on: HCT-116 colon
ACHN renal = tested on: ACHN renal
SW-620 colon = tested on: SW-620 colon
NCI-H226 lung = tested on: NCI-H226 lung
MCF7 breast = tested on: MCF7 breast
UACC-257 melanoma = tested on: UACC-257 melanoma
SF-295 CNS = tested on: SF-295 CNS
HT29 colon = tested on: HT29 colon
SR leukemia = tested on: SR leukemia
MDA-MB-231 breast = tested on: MDA-MB-231 breast
SF-268 CNS = tested on: SF-268 CNS
SK-MEL-2 melanoma = tested on: SK-MEL-2 melanoma
HOP-62 NSCLC = tested on: HOP-62 NSCLC
HCT-15 colon = tested on: HCT-15 colon
UO-31 renal = tested on: UO-31 renal
K-562 leukemia = tested on: K-562 leukemia
MOLT-4 leukemia = tested on: MOLT-4 leukemia
CCRF-CEM leukemia = tested on: CCRF-CEM leukemia
SK-OV-3 ovarian = tested on: SK-OV-3 ovarian
A549 NSCLC = tested on: A549 NSCLC
M14 melanoma = tested on: M14 melanoma
SF-539 CNS = tested on: SF-539 CNS

Structure (SMILES): S=c1nc2sc3c(c2c(Nc2ccccc2)[nH]1)CCCC3
- TGI (HL-60(TB) leukemia): > 100 µM
- TGI (MALME-3M melanoma): > 100 µM
- TGI (NCI/ADR-RES ovarian): > 100 µM
- TGI (NCI-H460 lung): > 100 µM
- TGI (UACC-62 melanoma): > 100 µM
- TGI (OVCAR-3 ovarian): > 100 µM
- TGI (CAKI-1 renal): > 100 µM
- TGI (786-0 renal): > 100 µM
- TGI (HCC-2998 colon): > 100 µM
- TGI (RPMI-8226 leukemia): > 100 µM
- TGI (SK-MEL-5 melanoma): > 100 µM
- TGI (BT-549 breast): > 100 µM
- TGI (NCI-H522 lung): > 100 µM
- TGI (DU-145 prostate): > 100 µM
- TGI (PC-3 prostate): > 100 µM
- TGI (SN12C renal): > 100 µM
- TGI (OVCAR-5 ovarian): > 100 µM
- TGI (HS 578T breast): > 100 µM
- TGI (OVCAR-4 ovarian): > 100 µM
- TGI (SK-MEL-28 melanoma): > 100 µM
- TGI (KM12 colon): > 100 µM
- TGI (SNB-75 CNS): > 100 µM
- TGI (TK-10 renal): > 100 µM
- TGI (T-47D breast): > 100 µM
- TGI (U251 CNS): > 100 µM
- TGI (OVCAR-8 ovarian): > 100 µM
- TGI (COLO 205 colon): > 100 µM
- TGI (MDA-MB-435): > 100 µM
- TGI (RXF 393 renal): > 100 µM
- TGI (IGROV1 ovarian): > 100 µM
- TGI (LOX IMVI melanoma): > 100 µM
- TGI (A498 renal): > 100 µM
- TGI (NCI-H23 lung): > 100 µM
- TGI (MDA-N): > 100 µM
- TGI (EKVX NSCLC): > 100 µM
- TGI (SNB-19 CNS): > 100 µM
- TGI (HCT-116 colon): > 100 µM
- TGI (ACHN renal): > 100 µM
- TGI (SW-620 colon): > 100 µM
- TGI (NCI-H226 lung): > 100 µM
- TGI (MCF7 breast): > 100 µM
- TGI (UACC-257 melanoma): > 100 µM
- TGI (SF-295 CNS): > 100 µM
- TGI (HT29 colon): > 100 µM
- TGI (SR leukemia): > 100 µM
- TGI (MDA-MB-231 breast): > 100 µM
- TGI (SF-268 CNS): > 100 µM
- TGI (SK-MEL-2 melanoma): > 100 µM
- TGI (HOP-62 NSCLC): > 100 µM
- TGI (HCT-15 colon): > 100 µM
- TGI (UO-31 renal): > 100 µM
- TGI (K-562 leukemia): > 100 µM
- TGI (MOLT-4 leukemia): > 100 µM

Structure (SMILES): CCNCC(O)COc1ccc2c(c1)[n+]([O-])nc(N)[n+]2[O-] (centres undefined)
- TGI (CCRF-CEM leukemia): > 100 µM
- TGI (HL-60(TB) leukemia): > 100 µM
- TGI (NCI/ADR-RES ovarian): > 100 µM
- TGI (UACC-62 melanoma): 69.8 µM
- TGI (OVCAR-3 ovarian): > 100 µM
- TGI (CAKI-1 renal): > 100 µM
- TGI (786-0 renal): > 100 µM
- TGI (RPMI-8226 leukemia): > 100 µM
- TGI (SK-MEL-5 melanoma): > 100 µM
- TGI (BT-549 breast): > 100 µM
- TGI (NCI-H522 lung): 43.6 µM
- TGI (DU-145 prostate): > 100 µM
- TGI (PC-3 prostate): > 100 µM
- TGI (SN12C renal): > 100 µM
- TGI (OVCAR-5 ovarian): > 100 µM
- TGI (SK-OV-3 ovarian): 82.1 µM
- TGI (HS 578T breast): > 100 µM
- TGI (OVCAR-4 ovarian): > 100 µM
- TGI (SK-MEL-28 melanoma): > 100 µM
- TGI (KM12 colon): > 100 µM
- TGI (SNB-75 CNS): > 100 µM
- TGI (TK-10 renal): > 100 µM
- TGI (T-47D breast): > 100 µM
- TGI (U251 CNS): > 100 µM
- TGI (OVCAR-8 ovarian): > 100 µM
- TGI (COLO 205 colon): > 100 µM
- TGI (MDA-MB-435): > 100 µM
- TGI (IGROV1 ovarian): > 100 µM
- TGI (LOX IMVI melanoma): 27.3 µM
- TGI (A498 renal): > 100 µM
- TGI (A549 NSCLC): > 100 µM
- TGI (NCI-H23 lung): > 100 µM
- TGI (MDA-N): > 100 µM
- TGI (EKVX NSCLC): > 100 µM
- TGI (SNB-19 CNS): > 100 µM
- TGI (M14 melanoma): > 100 µM
- TGI (HCT-116 colon): > 100 µM
- TGI (ACHN renal): > 100 µM
- TGI (SW-620 colon): > 100 µM
- TGI (NCI-H226 lung): > 100 µM
- TGI (SF-539 CNS): > 100 µM
- TGI (MCF7 breast): > 100 µM
- TGI (UACC-257 melanoma): > 100 µM
- TGI (SF-295 CNS): > 100 µM
- TGI (HT29 colon): > 100 µM
- TGI (SR leukemia): > 100 µM
- TGI (MDA-MB-231 breast): > 100 µM
- TGI (SF-268 CNS): > 100 µM
- TGI (SK-MEL-2 melanoma): > 100 µM
- TGI (HOP-62 NSCLC): > 100 µM
- TGI (HCT-15 colon): > 100 µM
- TGI (UO-31 renal): > 100 µM
- TGI (K-562 leukemia): > 100 µM
- TGI (MOLT-4 leukemia): 56 µM

Structure (SMILES): CC(C)/C=N\N1C(N)=C(C#N)C(C#N)(C#N)C1C(C)C (centres undefined)
- TGI (CCRF-CEM leukemia): 93.2 µM
- TGI (HL-60(TB) leukemia): 91.7 µM
- TGI (MALME-3M melanoma): > 100 µM
- TGI (NCI/ADR-RES ovarian): 82.8 µM
- TGI (UACC-62 melanoma): 76.5 µM
- TGI (OVCAR-3 ovarian): > 100 µM
- TGI (CAKI-1 renal): > 100 µM
- TGI (786-0 renal): > 100 µM
- TGI (HCC-2998 colon): > 100 µM
- TGI (RPMI-8226 leukemia): > 100 µM
- TGI (SK-MEL-5 melanoma): > 100 µM
- TGI (BT-549 breast): 92.3 µM
- TGI (NCI-H522 lung): > 100 µM
- TGI (DU-145 prostate): > 100 µM
- TGI (PC-3 prostate): > 100 µM
- TGI (SN12C renal): > 100 µM
- TGI (OVCAR-5 ovarian): > 100 µM
- TGI (SK-OV-3 ovarian): > 100 µM
- TGI (HS 578T breast): > 100 µM
- TGI (OVCAR-4 ovarian): > 100 µM
- TGI (SK-MEL-28 melanoma): > 100 µM
- TGI (KM12 colon): > 100 µM
- TGI (SNB-75 CNS): > 100 µM
- TGI (TK-10 renal): > 100 µM
- TGI (T-47D breast): > 100 µM
- TGI (U251 CNS): > 100 µM
- TGI (OVCAR-8 ovarian): 58.1 µM
- TGI (COLO 205 colon): > 100 µM
- TGI (MDA-MB-435): 58.6 µM
- TGI (RXF 393 renal): > 100 µM
- TGI (IGROV1 ovarian): > 100 µM
- TGI (LOX IMVI melanoma): > 100 µM
- TGI (A498 renal): > 100 µM
- TGI (A549 NSCLC): > 100 µM
- TGI (NCI-H23 lung): > 100 µM
- TGI (MDA-N): 69.8 µM
- TGI (EKVX NSCLC): > 100 µM
- TGI (SNB-19 CNS): > 100 µM
- TGI (M14 melanoma): > 100 µM
- TGI (HCT-116 colon): > 100 µM
- TGI (ACHN renal): > 100 µM
- TGI (SW-620 colon): > 100 µM
- TGI (NCI-H226 lung): > 100 µM
- TGI (SF-539 CNS): 64.8 µM
- TGI (MCF7 breast): > 100 µM
- TGI (UACC-257 melanoma): > 100 µM
- TGI (SF-295 CNS): > 100 µM
- TGI (HT29 colon): 80 µM
- TGI (SR leukemia): 82.9 µM
- TGI (MDA-MB-231 breast): > 100 µM
- TGI (SF-268 CNS): > 100 µM
- TGI (SK-MEL-2 melanoma): > 100 µM
- TGI (HOP-62 NSCLC): > 100 µM
- TGI (HCT-15 colon): > 100 µM
- TGI (UO-31 renal): > 100 µM
- TGI (K-562 leukemia): > 100 µM
- TGI (MOLT-4 leukemia): > 100 µM
